Source: US20250064803A1, “DOSAGE REGIMENS FOR PARP7 INHIBITORS” (Ribon Therapeutics, Inc., priority 2021, published 2025)
Values joined by “and” are separate entries in the source; they are usually repeats but may differ in a detail not shown here. Equal values may be shown once. “Also recorded” adds a separate entry of the source.

Tests used:
[1] = Particle size by laser diffraction (USP 42 <429>, Malvern Mastersizer 3000); type: physicochemical
Description: The compound of Formula I can be prepared in micronized and nonmicronized forms. In some embodiments, the compound of Formula I used in the dosage forms of the invention is micronized. The micronized drug substance can be prepared, for example, by jet milling. Particle size can be measured by laser diffraction methods (e.g., USP 42 <429> Light Diffraction Measurement of Particle Size). Nonmicronized compound can have a particle diameter size [d90] of about 30 μm or larger. In some embodiments, nonmicronized compound has a particle diameter size [d90] of about 30 to about 500 μm, about 50 to about 400 μm, about 100 to about 350 μm, or about 150 to about 300 μm.
Micronized batches of the compound of Formula I were prepared by jet milling using a nitrogen gas feed. The nonmicronized starting material was prepared in a manner similar to the process for preparing crystalline compound of Formula I described in U.S. Pat. No. 10,550,105. Particle size was measured by laser diffraction according to USP 42 <429> using a Malvern Mastersizer 3000 equipped with a Hydro MV wet dispersion sample unit. Particle size diameters [d90] for two different lots were measured as 10.851 and 8.715 μm, respectively.

[2] = Plasma pharmacokinetics after oral tablets and capsules in male Beagle dogs; type: in vivo; settings: for AUC / Cmax: male, Beagle, dog, plasma, po, 100 mg
Description: The objective of this study was to determine the plasma pharmacokinetic profiles of the compound of Formula I in male Beagle dogs after oral administration and to assess the exposure of tablets and capsules formulations.
Male Beagle dogs were purchased from Jiangsu Johnsen Bioresource CO., Ltd. The animals were 1-2.5 years old on the dosing day. All animals were housed in a 12-hour light/12-hour dark cycle environment. Animals for oral (PO) groups were fasted overnight prior to dosing and were fed approximately 2 hours after dosing. This study was approved by the Pharmaron Institutional Animal Care and Use Committee.
The compound of Formula I was used for the dose formulation and standard stock solution preparation. […] For the animals in PO groups, pentagastrin ([…], i.m.) was administrated 20 minutes before dosing PO formulation and 1.5 hours after the first pentagastrin dosing. The dosing volume was 0.024 mL/kg, the concentration was […] in DMSO/1 N NaOH/PBS. The dosing volume, detailed dosing time of pentagastrin was recorded. 10 mL of 0.001 N HCl was used to wash the gavage catheter for each animal.
Blood samples (0.5 mL) were collected from each animal via jugular veins. These blood samples were placed into tubes containing dipotassium ethylenediaminetetraacetic acid and then centrifuged at 2000 g for 10 minutes at 4° C. to produce plasma. All samples were stored at −75±15° C. until analysis.
Compound of Formula I was prepared in dimethyl sulfoxide with vortex at 1 mg/mL (free form) as standard stock solution. Calibration standard working solutions were prepared at concentrations of 5, 10, 20, 50, 100, 500, 1000, 5000, 10000 and 20000 ng/mL by serial dilution of the standard stock solution by 50% acetonitrile in water. […] These QC samples were prepared on the day of analysis in the same way as calibration standards.
5 μL of each calibration standard working solution (5, 10, 20, 50, 100, 500, 1000, 5000, 10000 and 20000 ng/mL) was added to 50 μL of blank Beagle Dog plasma to achieve calibration standards of 0.5-2000 ng/mL (0.5, 1, 2, 5, 10, 50, 100, 500, 1000, 2000 ng/mL) in a total volume of 55 μL. […] These QC samples were prepared on the day of analysis in the same way as calibration standards. 55 μL of standards, 55 μL of QC samples or 55 μL of unknown samples (50 μL of plasma sample with 5 μL 50% acetonitrile in water) were mixed with 200 μL of acetonitrile containing IS (internal standard, dexamethasone) to precipitate proteins. Then the samples were vortexed for 30 sec.
Data Acquisition was Performed by Sciex Analyst 1.6.3 Software (AB Sciex, Forster City, CA). Pharmacokinetic parameters were calculated by non-compartmental analysis (Phoenix TM WinNonlin® 6.1). The linear trapezoidal algorithm was used for AUC calculation.

[3] = First-in-human Phase 1 dose escalation study: treatment-related adverse events, safety; type: in vivo
Description: This protocol is a first-in-human, Phase 1, multi-center, open-label, study designed to evaluate the safety profile, including any dose-limiting toxicities (DLTs), and (maximum tolerated dose) MTD of the compound of Formula I administered as a single agent PO and establish the recommended phase 2 dose (RP2D) of the compound of Formula I. The study has a Dose Escalation Phase, which includes a relative bioavailability assessment, followed by a Dose Expansion Phase in patients with selected tumor types.
In the Dose Escalation Phase of the study, patients with any histologically- or cytologically-confirmed solid tumor type (which may include “solid” lymphoma [e.g., mantle cell]) that is refractory to standard therapy and for whom no therapy exists that would be curative or might provide clinical benefit and therefore for whom experimental therapy is a reasonable option are eligible. In the Dose Expansion Phase of the study, the RP2D will be investigated in the following cancer types: squamous cell carcinoma of the lung (SCCL), head and neck squamous cell carcinoma (HNSCC), hormone receptor positive (HR+) breast cancer, and PARP7 amplified cancer.
Two schedules are employed in the Dose Escalation Phase: • Schedule 1 will examine a 21-day cycle with 14 days of the compound of Formula I administered at doses of 25 mg, 50 mg, 100 mg, 200 mg, 300 mg, and 500 mg BID followed by a rest period. • Schedule 2 will examine a 21-day continuous dosing cycle at doses of 100 mg, 200 mg, 300 mg, and 400 mg BID.
The most frequent compound of Formula I treatment-related AEs in the ongoing Phase 1 escalation study are dysgeusia or taste disorder (36%), decreased appetite (15%), fatigue (14%), nausea (12%), and anemia, constipation, diarrhea and decreased weight (10%) each.
Overall, the safety profile of the compound of Formula I is considered manageable at the RP2D for combination with pembrolizumab.

[4] = Relative bioavailability PK of micronized vs nonmicronized 100 mg tablets in Phase 1 patients; type: in vivo, human
Protocol: Assessments conducted after C1D1 will be the same as described for patients in the dose escalation cohorts following Schedule 2. Based on emerging PK data, additional Relative Bioavailability Cohorts at additional dose levels may be explored.
Patients enrolled in the Relative Bioavailability Cohort(s) will have an additional visit 7 days (±3 days) prior to C1D1. […] On C1D-7 patients will be attached to a Holter monitor that will run continuously for ˜24 hours (i.e., until patients return on the following day for the 24-hr PK sample collection on C1D-6). […] On C1D1, patients will be attached to a Holter monitor that will run continuously for ˜24 hours (i.e., immediately before the study drug dose on C1D2). […] Samples collected after C1D2 are not considered part of the relative Bioavailability data set.
Plasma samples were collected at 0.5, 1, 2, 4, 6, 8, 12 and 24 hours post dose. […] Plasma samples were collected at 0.5, 1, 2, 4, 6, 8, 12 and 24 hours post dose.

[5] = cited from earlier work
[6] = 100 mg capsule, micronized vs nonmicronized
[7] = particle size d90:d50 18:5 μm (micronized)
[8] = particle size d90:d50 228:108 μm (nonmicronized)
[9] = patients, ongoing Phase 1 escalation study
[10] = NSCLC patients, second or third line, Keynote-010 (n=682)

## C[C@@H](COCCC(=O)N1CCN(c2ncc(C(F)(F)F)cn2)CC1)Nc1cn[nH]c(=O)c1C(F)(F)F [compound of Formula I, 5-[[(2S)-1-(3-oxo-3-[4-[5-(trifluoromethyl)pyrimidin-2-yl]piperazin-1-yl]propoxy)propan-2-yl]amino]-4-(trifluoromethyl)-2,3-dihydropyridazin-3-one]
[1]; micronized compound (jet milled)
  particle diameter size d[90]: 10.851 μm and 8.715 μm
[1]; nonmicronized compound
  particle diameter size d[90]: 228.474 μm
[2]; [6]
  increase in AUC by micronization: 2.8 fold
  increase in Cmax by micronization: 4.7 fold
[2]; 100 mg/dog PO
  exposure, micronized capsules (Group E) versus nonmicronized capsules (Group D): much higher
[2]; Groups A, B and C, tablets 25, 50, 100 mg/dog
  oral exposure versus dose level: increased with the dose level, though not linear
[2]; [7]
  AUC: 9560 ng·h/mL
  Cmax: 1670 ng/mL
[2]; [8]
  AUC: 3400 ng·h/mL
  Cmax: 356 ng/mL
[3]; 50 patients, first-in-human Phase 1 trial
  safety profile / tolerability: favorable safety profile; also recorded: well tolerated
[3]; [9]
  treatment-related AE: anemia: 10%
  treatment-related AE: constipation: 10%
  treatment-related AE: decreased appetite: 15%
  treatment-related AE: decreased weight: 10%
  treatment-related AE: diarrhea: 10%
  treatment-related AE: dysgeusia or taste disorder: 36%
  treatment-related AE: fatigue: 14%
  treatment-related AE: nausea: 12%
[4]
  increase in mean AUC, micronized vs nonmicronized tablet: about 1.5 fold
  increase in mean Cmax, micronized vs nonmicronized tablet: about 2.4 fold

## pembrolizumab: humanized antibody that binds to human PD-1, approved by the U.S. FDA
[5]; [10]
  adverse reactions leading to discontinuation: 8%
  pneumonitis leading to discontinuation (most common): 1.8%
[5]; single agent (Merck 2021)
  most frequent treatment-related AEs (fatigue, musculoskeletal pain, decreased appetite, pruritus, diarrhea, nausea, rash, pyrexia, cough, dyspnea, constipation, pain, abdominal pain), reported in: > 20%
